Where “and” joins values, the source holds several entries; their conditions need not be identical. Equal entries are not always repeated.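 Exposure lasted 48 hours, with cells grown in 96-well plates and compounds tested at five concentrations. The concentration for 50% growth inhibition is given as GI50.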 Calls of active or inactive are those of the source. No stated cut-off is given here; in the data, active = GI50 up to about 1.1 µM and inactive = higher.
What was measured:
Assay in all cases: DTP human tumour cell line panel, 48 h
[1] = tested on: A498
[2] = tested on: ACHN
[3] = tested on: EKVX
[4] = tested on: HOP-62
[5] = tested on: Hs-578T
[6] = tested on: IGROV-1
[7] = tested on: K562
[8] = tested on: M14
[9] = tested on: MDA-N
[10] = tested on: NCI-H522
[11] = tested on: NCI/ADR-RES
[12] = tested on: OVCAR-4
[13] = tested on: SF-295
[14] = tested on: SF-539
[15] = tested on: SK-MEL-28
[16] = tested on: SK-MEL-5
[17] = tested on: SK-OV-3
[18] = tested on: SNB-75
[19] = tested on: TK-10
[20] = tested on: UACC-62

SMILES | GI50 [1] | GI50 [2] | GI50 [3] | GI50 [4] | GI50 [5] | GI50 [6] | GI50 [7] | GI50 [8] | GI50 [9] | GI50 [10] | GI50 [11] | GI50 [12] | GI50 [13] | GI50 [14] | GI50 [15] | GI50 [16] | GI50 [17] | GI50 [18] | GI50 [19] | GI50 [20]
CCNC(=S)/N=c1\sc(NCC)nc2sc3c(c12)CCN(N1CCc2c(sc4nc(NCC)s/c(=N\C(=S)NCC)c24)C1)C3 | 54 µM (inactive) | 62.8 µM (inactive) | > 100 µM (inactive) | 57.3 µM (inactive) | > 100 µM (inactive) | 39.8 µM (inactive) | 27.7 µM (inactive) | 46.5 µM (inactive) | 91.4 µM (inactive) | 65.6 µM (inactive) | > 100 µM (inactive) | 86.1 µM (inactive) | 72.4 µM (inactive) | 15.5 µM (inactive) | 92 µM (inactive) | 31.8 µM (inactive) | > 100 µM (inactive) | > 100 µM (inactive) | > 100 µM (inactive) | > 100 µM (inactive)
C=C(CC(=O)Nc1ccc(C(=O)OC)o1)C(=O)OC | 42.8 µM (inactive) | 18.7 µM (inactive) | 21.8 µM (inactive) | 73.3 µM (inactive) | 53.1 µM (inactive) | 23 µM (inactive) |  | 19.1 µM (inactive) | > 10 µM (inactive) | 19.9 µM (inactive) | 41.3 µM (inactive) | 30.7 µM (inactive) | 34.5 µM (inactive) | 17.3 µM (inactive) | 23 µM (inactive) | 18.5 µM (inactive) | 28.7 µM (inactive) | 32.4 µM (inactive) | 20.8 µM (inactive) | 25.4 µM (inactive)
c1ccc(CCc2cccnc2)nc1 | > 100 µM (inactive) | > 100 µM (inactive) | > 100 µM (inactive) | > 100 µM (inactive) | > 100 µM (inactive) | > 100 µM (inactive) | 52.4 µM (inactive) | > 100 µM (inactive) | > 100 µM (inactive) | 45.7 µM (inactive) | > 100 µM (inactive) | > 100 µM (inactive) | > 100 µM (inactive) | > 100 µM (inactive) | > 100 µM (inactive) | > 100 µM (inactive) | > 100 µM (inactive) | > 100 µM (inactive) | > 100 µM (inactive) | > 100 µM (inactive)
CCOC(=O)Nc1ccc2c(c1)c(CCCCCCc1nc3ccccc3c3ccc(NC(=O)OCC)cc13)nc1ccccc12 | 31.3 µM (inactive) | 39 µM (inactive) | < 0.01 µM (active) | 27.7 µM (inactive) | > 100 µM (inactive) | > 100 µM (inactive) | 80 µM (inactive) | 29.1 µM (inactive) | 61.2 µM (inactive) | 22.9 µM (inactive) | 41.2 µM (inactive) | 29.3 µM (inactive) | 49.5 µM (inactive) | 12.5 µM (inactive) | 52.6 µM (inactive) | 78.9 µM (inactive) | 31.8 µM (inactive) | 16.3 µM (inactive) | 26.2 µM (inactive) | > 100 µM (inactive)
COCc1cc2c(cc1/C(=C/[N+](=O)[O-])CS(=O)(=O)c1ccccc1)OCO2 | > 100 µM (inactive) | > 100 µM (inactive) | > 100 µM (inactive) | > 100 µM (inactive) | > 100 µM (inactive) | > 100 µM (inactive) | > 100 µM (inactive) | > 100 µM (inactive) | > 100 µM (inactive) | 43.6 µM (inactive) | > 100 µM (inactive) |  | > 100 µM (inactive) | > 100 µM (inactive) | > 100 µM (inactive) | > 100 µM (inactive) | > 100 µM (inactive) | > 100 µM (inactive) | > 100 µM (inactive) | > 100 µM (inactive)
O=C(N1CCN(c2ccccc2)CC1)N(C(=O)C1(c2ccc(Cl)cc2)CCCC1)S(=O)(=O)c1ccccc1 | < 0.01 µM (active) | 14 µM (inactive) | 21.1 µM (inactive) | 29.1 µM (inactive) | 29.8 µM (inactive) |  | 32.4 µM (inactive) | 21.1 µM (inactive) | 22.1 µM (inactive) | 15.4 µM (inactive) | 23.7 µM (inactive) | 24.1 µM (inactive) | 24.6 µM (inactive) | 22.1 µM (inactive) | 40.8 µM (inactive) | 19.9 µM (inactive) | 30 µM (inactive) | 52.2 µM (inactive) | 41.4 µM (inactive) | 20.6 µM (inactive)
COc1cc(S(=O)(=O)Nc2ccc(-c3csc(N4C(=O)C(Cl)C4c4cccc(Oc5ccccc5)c4)n3)cc2)ccc1Cl (configuration not stated) | 25.2 µM (inactive) | 24 µM (inactive) | 20.7 µM (inactive) | 38.3 µM (inactive) | > 100 µM (inactive) | 2.71 µM (inactive) | 27.9 µM (inactive) | 22.9 µM (inactive) | 22.3 µM (inactive) | 1.69 µM (inactive) | > 100 µM (inactive) | 4.91 µM (inactive) | > 100 µM (inactive) | 16.1 µM (inactive) | 24.3 µM (inactive) | 29.1 µM (inactive) | > 100 µM (inactive) | 22.3 µM (inactive) |  | 24.5 µM (inactive)
O=c1c(-c2ccc(Cl)cc2)nnc2n(Cc3ccccc3)c3ccccc3n12 | 23 µM (inactive) | 21.7 µM (inactive) | 38.4 µM (inactive) | 23.6 µM (inactive) | 24 µM (inactive) | 18.7 µM (inactive) |  | 43.4 µM (inactive) | > 100 µM (inactive) | 16.8 µM (inactive) | 52.7 µM (inactive) | 5.94 µM (inactive) | 19.1 µM (inactive) | 13.6 µM (inactive) | 51.6 µM (inactive) | 41.1 µM (inactive) |  | 13 µM (inactive) | 20.6 µM (inactive) | 
CC1OC(OC2C(OC(=O)[C@]34CCC(C)(C)C[C@H]3C3=CC[C@@H]5[C@@]6(C)CC[C@H](OC7OC(CO)C(O)C(O)C7OC7OC(CO)C(O)C(O)C7O)C(C)(C)[C@@H]6CC[C@@]5(C)[C@]3(C)CC4)OCC(O)C2O)C(O)C(O)C1OC1OCC(O)C(OC2OCC(O)C(O)C2O)C1O (some centres not stated) | 2.17 µM (inactive) and 2.02 µM (inactive) | 5.98 µM (inactive) and 4.8 µM (inactive) | 2.44 µM (inactive) and 2.97 µM (inactive) |  | 13.5 µM (inactive) and 12.9 µM (inactive) | 11.9 µM (inactive) and 8.38 µM (inactive) | 4.6 µM (inactive) and 3.77 µM (inactive) | 1.97 µM (inactive) and 1.79 µM (inactive) | 1.64 µM (inactive) and 1.88 µM (inactive) | 2.65 µM (inactive) and 2.49 µM (inactive) | 5.81 µM (inactive) and 3.99 µM (inactive) | 7.19 µM (inactive) and 5.41 µM (inactive) | 3.44 µM (inactive) and 3.78 µM (inactive) | 29.2 µM (inactive) and 19.5 µM (inactive) | 2.09 µM (inactive) and 2.18 µM (inactive) | 2.82 µM (inactive) and 3.24 µM (inactive) | 12.6 µM (inactive) and 13.1 µM (inactive) | 7.93 µM (inactive) and 5.86 µM (inactive) | 8.41 µM (inactive) and 8.63 µM (inactive) | 2.21 µM (inactive) and 2.5 µM (inactive)

Source: ChEMBL document CHEMBL1201862, “PubChem BioAssay data set” (2004)
